Results as given in ChEMBL document CHEMBL1201862, “PubChem BioAssay data set” (2004).
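All cell lines were grown in 96-well plates and treated with compound for 48 hours. GI50 marks 50% less growth.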 Calls of active or inactive are those of the source. Rule as the data show it: active = GI50 up to about 1.1 µM and inactive = higher.

Legend:
Assay in all cases: inhibition of tumour cell growth, NCI panel, 48 h
OVCAR-5 = tested on: OVCAR-5
SK-MEL-28 = tested on: SK-MEL-28
786-0 = tested on: 786-0
Malme-3M = tested on: Malme-3M
HOP-92 = tested on: HOP-92
UACC-257 = tested on: UACC-257
HCT-116 = tested on: HCT-116
HL-60 = tested on: HL-60
OVCAR-8 = tested on: OVCAR-8
RXF 393 = tested on: RXF 393
ACHN = tested on: ACHN
UO-31 = tested on: UO-31
SW-620 = tested on: SW-620
U-251 = tested on: U-251
CAKI-1 = tested on: CAKI-1
EKVX = tested on: EKVX
SF-539 = tested on: SF-539
PC-3 = tested on: PC-3
Hs-578T = tested on: Hs-578T
MDA-MB-231 = tested on: MDA-MB-231

Measured: GI50

c1ccc2c(c1)C1=NCCN1c1ccccc1-2
inactive: OVCAR-5 3.47 µM | SK-MEL-28 3.91 µM | 786-0 2.6 µM | Malme-3M 2.64 µM | HOP-92 4.45 µM | UACC-257 2.7 µM | HCT-116 1.23 µM | HL-60 2.42 µM | OVCAR-8 2.51 µM | RXF 393 1.56 µM | ACHN 2.11 µM | UO-31 2.77 µM | SW-620 2.37 µM | U-251 3.15 µM | CAKI-1 2.6 µM | EKVX 4.54 µM | SF-539 2.78 µM

Cn1c2ccccc2c(=O)c2ccc(Cl)cc21
inactive: SK-MEL-28 > 10 µM | 786-0 > 10 µM | Malme-3M > 10 µM | HOP-92 > 10 µM | HCT-116 > 10 µM | HL-60 9.95 µM | OVCAR-8 > 10 µM | RXF 393 > 10 µM | PC-3 > 10 µM | SW-620 > 10 µM | EKVX 1.38 µM | SF-539 2.51 µM

O=C1CCCC(O)=C1SC1=C(O)CCCC1=O
inactive: OVCAR-5 > 100 µM | SK-MEL-28 69.2 µM | 786-0 81.1 µM | Malme-3M > 100 µM | HOP-92 > 100 µM | UACC-257 > 100 µM | HCT-116 76 µM | HL-60 > 100 µM | OVCAR-8 > 100 µM | RXF 393 > 100 µM | UO-31 98.2 µM | SW-620 > 100 µM | U-251 > 100 µM | CAKI-1 94.2 µM | EKVX > 100 µM | SF-539 > 100 µM

CC1=C(C(=O)NCc2ccccc2)C(c2ccccc2[N+](=O)[O-])C(C(=O)NCc2ccccc2)=C(C)N1
inactive: OVCAR-5 22.1 µM | SK-MEL-28 13.1 µM | 786-0 12.8 µM | Malme-3M 13.7 µM | HOP-92 20.8 µM | UACC-257 13.3 µM | HCT-116 6.75 µM | HL-60 3.31 µM | OVCAR-8 13.1 µM | RXF 393 10.6 µM | ACHN 13.9 µM | UO-31 13.9 µM | SW-620 14.5 µM | U-251 10.9 µM | CAKI-1 21.3 µM | EKVX 16.4 µM | SF-539 8.09 µM

CCOc1cc(NC(C)=O)ccc1C(=O)NNS(=O)(=O)c1ccc(NC(C)=O)cc1
inactive: OVCAR-5 > 100 µM | SK-MEL-28 99.1 µM | 786-0 42.3 µM | Malme-3M 86.7 µM | HOP-92 61.9 µM | UACC-257 > 100 µM | HCT-116 44.1 µM | HL-60 22.8 µM | OVCAR-8 69.3 µM | RXF 393 76.7 µM | ACHN > 100 µM | UO-31 62.4 µM | PC-3 46.7 µM | SW-620 39.2 µM | CAKI-1 54.6 µM | EKVX 56 µM | SF-539 33.2 µM | Hs-578T 41.7 µM

O=C(O)CCc1nc2cc3ccccc3cc2[nH]c1=O
inactive: OVCAR-5 > 100 µM | SK-MEL-28 > 100 µM | 786-0 > 100 µM | MDA-MB-231 > 100 µM | HOP-92 > 100 µM | UACC-257 > 100 µM | HCT-116 > 100 µM | OVCAR-8 > 100 µM | RXF 393 > 100 µM | ACHN > 100 µM | UO-31 > 100 µM | PC-3 > 100 µM | SW-620 > 100 µM | U-251 > 100 µM | CAKI-1 > 100 µM | EKVX > 100 µM | SF-539 > 100 µM

CS(=O)(=O)C1S(=O)(=O)OCCOS1(=O)=O
inactive: OVCAR-5 > 100 µM | SK-MEL-28 > 100 µM | 786-0 > 100 µM | Malme-3M > 100 µM | HOP-92 > 100 µM | UACC-257 > 100 µM | HCT-116 > 100 µM | HL-60 > 100 µM | OVCAR-8 > 100 µM | RXF 393 > 100 µM | ACHN > 100 µM | UO-31 > 100 µM | SW-620 > 100 µM | U-251 > 100 µM | CAKI-1 > 100 µM | EKVX > 100 µM | SF-539 > 100 µM

O=C(NI1OC(=O)c2ccccc21)c1ccc(Cl)cc1
inactive: OVCAR-5 > 100 µM | SK-MEL-28 > 100 µM | 786-0 > 100 µM | MDA-MB-231 > 100 µM | HOP-92 > 100 µM | UACC-257 > 100 µM | HCT-116 > 100 µM | HL-60 > 100 µM | OVCAR-8 > 100 µM | RXF 393 > 100 µM | ACHN > 100 µM | UO-31 43.2 µM | PC-3 > 100 µM | SW-620 34.4 µM | U-251 45.7 µM | CAKI-1 > 100 µM | EKVX > 100 µM | SF-539 > 100 µM

N#Cc1nc(C(CO)N(Cc2ccccc2)C(=O)O)oc1N (centres undefined)
inactive: OVCAR-5 > 100 µM | SK-MEL-28 > 100 µM | 786-0 > 100 µM | MDA-MB-231 > 100 µM | HOP-92 > 100 µM | UACC-257 > 100 µM | HCT-116 > 100 µM | HL-60 > 100 µM | OVCAR-8 > 100 µM | RXF 393 > 100 µM | ACHN > 100 µM | UO-31 > 100 µM | PC-3 > 100 µM | U-251 > 100 µM | CAKI-1 > 100 µM | EKVX > 100 µM | SF-539 > 100 µM
